# Measurements as given in US10251395B2, “Substituted furano-/thienocycloalkylamino-2-pyrimidine derivatives and use thereof for controlling undesired plant growth” (Bayer CropScience Aktiengesellschaft, priority 2015, dated 2019).
# Tests used:
# [1] = test system: Abutilon theophrasti; assay: Pre-emergence herbicidal effect; format: in vivo; details: scored visually after 3 weeks
# How it was run: (§1)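 Scoring: visual, 3 weeks, % vs untreated (100% = died). Treatment: WP or EC in water, 0.2% wetting agent, sprayed on covering soil after sowing in sandy loam.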
# [2] = test system: Polygonum convolvulus; assay: Pre-emergence herbicidal effect; format: in vivo; details: scored visually after 3 weeks
# How it was run: as §1
# [3] = test system: Stellaria media; assay: Pre-emergence herbicidal effect; format: in vivo; details: scored visually after 3 weeks
# How it was run: as §1
# [4] = test system: Matricaria inodora; assay: Pre-emergence herbicidal effect; format: in vivo; details: scored visually after 3 weeks
# How it was run: as §1
# [5] = test system: Viola tricolor; assay: Pre-emergence herbicidal effect; format: in vivo; details: scored visually after 3 weeks
# How it was run: as §1
# [6] = test system: Alopecurus myosuroides; assay: Pre-emergence herbicidal effect; format: in vivo; details: scored visually after 3 weeks
# How it was run: as §1
# [7] = test system: Lolium multiflorum; assay: Pre-emergence herbicidal effect; format: in vivo; details: scored visually after 3 weeks
# How it was run: as §1
# [8] = test system: Avena fatua; assay: Pre-emergence herbicidal effect; format: in vivo; details: scored visually after 3 weeks
# How it was run: as §1
# [9] = test system: Veronica persica; assay: Pre-emergence herbicidal effect; format: in vivo; details: scored visually after 3 weeks
# How it was run: as §1
# [10] = test system: Amaranthus retroflexus; assay: Pre-emergence herbicidal effect; format: in vivo; details: scored visually after 3 weeks
# How it was run: as §1
# [11] = test system: Setaria viridis; assay: Pre-emergence herbicidal effect; format: in vivo; details: scored visually after 3 weeks
# How it was run: as §1
# [12] = test system: Echinochloa crus-galli; assay: Pre-emergence herbicidal effect; format: in vivo; details: scored visually after 3 weeks
# How it was run: as §1
# [13] = test system: Abutilon theophrasti; assay: Post-emergence herbicidal effect; format: in vivo; details: assessed visually after about 3 weeks vs untreated controls
# How it was run: (§2)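 Herbicidal effect was rated visually roughly 3 weeks after foliar treatment, as % versus untreated plants, with 0% meaning the same as controls and 100% meaning dead. Plants were treated at the one-leaf stage in the greenhouse with aqueous WP or EC sprays at 600–800 L/ha containing 0.2% wetter.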
# [14] = test system: Polygonum convolvulus; assay: Post-emergence herbicidal effect; format: in vivo; details: assessed visually after about 3 weeks vs untreated controls
# How it was run: as §2
# [15] = test system: Stellaria media; assay: Post-emergence herbicidal effect; format: in vivo; details: assessed visually after about 3 weeks vs untreated controls
# How it was run: as §2
# [16] = test system: Matricaria inodora; assay: Post-emergence herbicidal effect; format: in vivo; details: assessed visually after about 3 weeks vs untreated controls
# How it was run: as §2
# [17] = test system: Viola tricolor; assay: Post-emergence herbicidal effect; format: in vivo; details: assessed visually after about 3 weeks vs untreated controls
# How it was run: as §2
# [18] = test system: Ipomoea purpurea; assay: Post-emergence herbicidal effect; format: in vivo; details: assessed visually after about 3 weeks vs untreated controls
# How it was run: as §2
# [19] = test system: Alopecurus myosuroides; assay: Post-emergence herbicidal effect; format: in vivo; details: 320 g/ha, assessed visually after about 3 weeks vs untreated controls
# How it was run: as §2
# [20] = test system: Avena fatua; assay: Post-emergence herbicidal effect; format: in vivo; details: 320 g/ha, assessed visually after about 3 weeks vs untreated controls
# How it was run: as §2
# [21] = test system: Veronica persica; assay: Post-emergence herbicidal effect; format: in vivo; details: assessed visually after about 3 weeks vs untreated controls
# How it was run: as §2
# [22] = test system: Amaranthus retroflexus; assay: Post-emergence herbicidal effect; format: in vivo; details: assessed visually after about 3 weeks vs untreated controls
# How it was run: as §2
# [23] = test system: Setaria viridis; assay: Post-emergence herbicidal effect; format: in vivo; details: assessed visually after about 3 weeks vs untreated controls
# How it was run: as §2
# [24] = test system: Echinochloa crus-galli; assay: Post-emergence herbicidal effect; format: in vivo; details: assessed visually after about 3 weeks vs untreated controls
# How it was run: as §2
# [25] = test system: Lolium multiflorum; assay: Post-emergence herbicidal effect; format: in vivo; details: assessed visually after about 3 weeks vs untreated controls
# How it was run: as §2
# [26] = logP (HCOOH); format: physicochemical; details: HCOOH
# Excerpt: Table 2 (physicochemical characterization of selected synthesis examples)
structure (smiles),measurement,setting,value
Cc1cc2c(s1)CCCC2Nc1ncc(C(F)(F)F)c(N)n1 (racemic) [compound 11],ABUTH pre-emergence efficacy (herbicidal activity),[1]; Dosage 80 g/ha,100%
same,POLCO pre-emergence efficacy (herbicidal activity),[2]; Dosage 80 g/ha,100%
same,POLCO pre-emergence efficacy (herbicidal activity),[2]; Dosage 320 g/ha,100%
same,STEME pre-emergence efficacy (herbicidal activity),[3]; Dosage 80 g/ha,100%
same,STEME pre-emergence efficacy (herbicidal activity),[3]; Dosage 320 g/ha,100%
same,MATIN pre-emergence efficacy (herbicidal activity),[4]; Dosage 80 g/ha,100%
same,MATIN pre-emergence efficacy (herbicidal activity),[4]; Dosage 320 g/ha,100%
same,VIOTR pre-emergence efficacy (herbicidal activity),[5]; Dosage 80 g/ha,100%
same,VIOTR pre-emergence efficacy (herbicidal activity),[5]; Dosage 320 g/ha,100%
same,ALOMY pre-emergence efficacy (herbicidal activity),[6]; Dosage 80 g/ha,90%
same,ALOMY pre-emergence efficacy (herbicidal activity),[6]; Dosage 320 g/ha,100%
same,LOLMU pre-emergence efficacy (herbicidal activity),[7]; Dosage 80 g/ha,100%
same,LOLMU pre-emergence efficacy (herbicidal activity),[7]; Dosage 320 g/ha,100%
same,AVEFA pre-emergence efficacy (herbicidal activity),[8]; Dosage 80 g/ha,60%
same,AVEFA pre-emergence efficacy (herbicidal activity),[8]; Dosage 320 g/ha,90%
same,VERPE pre-emergence efficacy (herbicidal activity),[9]; Dosage 80 g/ha,100%
same,VERPE pre-emergence efficacy (herbicidal activity),[9]; Dosage 320 g/ha,100%
same,AMARE pre-emergence efficacy (herbicidal activity),[10]; Dosage 80 g/ha,100%
same,AMARE pre-emergence efficacy (herbicidal activity),[10]; Dosage 320 g/ha,100%
same,SETVI pre-emergence efficacy (herbicidal activity),[11]; Dosage 80 g/ha,100%
same,SETVI pre-emergence efficacy (herbicidal activity),[11]; Dosage 320 g/ha,100%
same,ECHCG pre-emergence efficacy (herbicidal activity),[12]; Dosage 80 g/ha,100%
same,ECHCG pre-emergence efficacy (herbicidal activity),[12]; Dosage 320 g/ha,100%
same,post-emergence efficacy ABUTH,[13]; 80 g/ha,100%
same,post-emergence efficacy ABUTH,[13]; 320 g/ha,100%
same,post-emergence efficacy POLCO,[14]; 80 g/ha,90%
same,post-emergence efficacy POLCO,[14]; 320 g/ha,90%
same,post-emergence efficacy STEME,[15]; 80 g/ha,90%
same,post-emergence efficacy STEME,[15]; 320 g/ha,100%
same,post-emergence efficacy MATIN,[16]; 80 g/ha,90%
same,post-emergence efficacy MATIN,[16]; 320 g/ha,100%
same,post-emergence efficacy VIOTR,[17]; 80 g/ha,100%
same,post-emergence efficacy VIOTR,[17]; 320 g/ha,100%
same,post-emergence efficacy PHBPU,[18]; 80 g/ha,90%
same,post-emergence efficacy PHBPU,[18]; 320 g/ha,90%
same,post-emergence efficacy ALOMY,[19],90%
same,post-emergence efficacy AVEFA,[20],80%
same,post-emergence efficacy VERPE,[21]; 80 g/ha,80%
same,post-emergence efficacy VERPE,[21]; 320 g/ha,90%
same,post-emergence efficacy AMARE,[22]; 80 g/ha,90%
same,post-emergence efficacy AMARE,[22]; 320 g/ha,90%
same,post-emergence efficacy SETVI,[23]; 80 g/ha,90%
same,post-emergence efficacy SETVI,[23]; 320 g/ha,90%
same,post-emergence efficacy ECHCG,[24]; 80 g/ha,100%
same,post-emergence efficacy ECHCG,[24]; 320 g/ha,100%
Cc1cc2c(s1)CC(C)C2Nc1ncc(S(C)(=O)=O)c(N)n1 (racemic) [compound 17],ABUTH pre-emergence efficacy (herbicidal activity),[1]; Dosage 80 g/ha,80%
same,ABUTH pre-emergence efficacy (herbicidal activity),[1]; Dosage 320 g/ha,100%
same,POLCO pre-emergence efficacy (herbicidal activity),[2]; Dosage 320 g/ha,100%
same,STEME pre-emergence efficacy (herbicidal activity),[3]; Dosage 80 g/ha,100%
same,STEME pre-emergence efficacy (herbicidal activity),[3]; Dosage 320 g/ha,100%
same,MATIN pre-emergence efficacy (herbicidal activity),[4]; Dosage 80 g/ha,100%
same,MATIN pre-emergence efficacy (herbicidal activity),[4]; Dosage 320 g/ha,100%
same,VIOTR pre-emergence efficacy (herbicidal activity),[5]; Dosage 80 g/ha,100%
same,VIOTR pre-emergence efficacy (herbicidal activity),[5]; Dosage 320 g/ha,100%
same,ALOMY pre-emergence efficacy (herbicidal activity),[6]; Dosage 320 g/ha,100%
same,VERPE pre-emergence efficacy (herbicidal activity),[9]; Dosage 80 g/ha,100%
same,VERPE pre-emergence efficacy (herbicidal activity),[9]; Dosage 320 g/ha,100%
same,AMARE pre-emergence efficacy (herbicidal activity),[10]; Dosage 80 g/ha,100%
same,AMARE pre-emergence efficacy (herbicidal activity),[10]; Dosage 320 g/ha,100%
same,SETVI pre-emergence efficacy (herbicidal activity),[11]; Dosage 80 g/ha,60%
same,SETVI pre-emergence efficacy (herbicidal activity),[11]; Dosage 320 g/ha,100%
same,ECHCG pre-emergence efficacy (herbicidal activity),[12]; Dosage 80 g/ha,100%
same,ECHCG pre-emergence efficacy (herbicidal activity),[12]; Dosage 320 g/ha,100%
same,post-emergence efficacy ABUTH,[13]; 320 g/ha,100%
same,post-emergence efficacy POLCO,[14]; 80 g/ha,80%
same,post-emergence efficacy POLCO,[14]; 320 g/ha,80%
same,post-emergence efficacy STEME,[15]; 320 g/ha,100%
same,post-emergence efficacy MATIN,[16]; 320 g/ha,80%
same,post-emergence efficacy VIOTR,[17]; 320 g/ha,90%
same,post-emergence efficacy PHBPU,[18]; 320 g/ha,0%
same,post-emergence efficacy ALOMY,[19],90%
same,post-emergence efficacy LOLMU,[25]; 80 g/ha,90%
same,post-emergence efficacy LOLMU,[25]; 320 g/ha,100%
same,post-emergence efficacy AVEFA,[20],100%
same,post-emergence efficacy VERPE,[21]; 320 g/ha,100%
same,post-emergence efficacy AMARE,[22]; 320 g/ha,100%
same,post-emergence efficacy SETVI,[23]; 320 g/ha,100%
same,post-emergence efficacy ECHCG,[24]; 80 g/ha,80%
same,post-emergence efficacy ECHCG,[24]; 320 g/ha,100%
same,logP (HCOOH),[26],"oily; logP (HCOOH): 2.11; 1H NMR (CDCl3, 400 MHZ, δ in ppm): 1.30 (d, 3H, 3H of"
